Assay [1] concerns the target T1, TYK2 (Homo sapiens, UniProt P29597). Briefly: HEK-Blue IFNα/β reporter assay (SEAP) for TYK2 pseudokinase inhibition. The class given is cell-based. Conditions: HEK-Blue IFNα/β cells, 1 ng/mL human recombinant IFNα. The gist of the method: (§1)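 HEK-Blue cells carrying cytokine receptor and STAT3 or STAT1 SEAP reporter, pretreated 60 min with compound, then stimulated with 10 ng/mL IL-23 (22–24 h) or 1 ng/mL IFNα (16–18 h). SEAP read with QUANTI-Blue; IC50 by non-linear regression versus no-inhibitor and unstimulated controls.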

Assay [2] addresses T2, TYK2-JH1 (Homo sapiens, UniProt P29597).
T2 construct: recombinant purified His or GST-tagged catalytic domain for each enzyme; made in house
T2 sequence (P29597 897-1176 limits assumed): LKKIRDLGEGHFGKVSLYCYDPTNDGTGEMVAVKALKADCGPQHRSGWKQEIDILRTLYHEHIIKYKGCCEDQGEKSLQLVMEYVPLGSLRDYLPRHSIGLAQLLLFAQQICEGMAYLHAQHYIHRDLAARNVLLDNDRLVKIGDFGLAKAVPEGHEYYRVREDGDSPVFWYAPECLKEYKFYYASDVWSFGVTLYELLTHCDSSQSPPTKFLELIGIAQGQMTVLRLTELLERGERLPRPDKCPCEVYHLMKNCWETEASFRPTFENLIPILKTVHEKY
The experiment in a line: HTRF-based selectivity assay, TYK2 catalytic domain. The format is biochemical. Conditions: kinase domain (JH1), ATP 20 μM. As for the experimental part: (§2) The ability of compounds to inhibit the activity of JAK1, JAK2, JAK3 and TYK2 is measured using a recombinant purified His or GST-tagged catalytic domain for each enzyme (JAK1, JAK2 and TYK2 are generated in-house; JAK3 was purchased from Carna biosciences, Cat #08-046) in an HTRF format biochemical assay. The reactions employs a commercial peptide substrate from Cisbio (Cat #62TK0PEC). The basic assay protocol is as follows: first, 2.5 µL of diluted compounds (4×) in DMSO are dispensed into a 384-well Optiplate. Next, 2.5 μL of enzyme (final concentrations for enzymes are: TYK2-700 ng/mL, JAK1-80.6 ng/mL, JAK2-2.1 ng/mL and JAK3-171.8 ng/mL) is added and incubated at RT for 5-20 min. Finally, 5 μl of mixture of 2×ATP [Final concentration 20 μM for TYK2, 21.43 μM for JAK1, 14.7 μM for JAK2 and 2.12 μM for JAK3]+2× Substrate [Final concentration 217 nM for TYK2, 454.7 nM for JAK1, 200 nM for JAK2 and 257.4 nM for JAK3] is added to 384 well Optiplate. Composition of Kinase assay buffer used in the assay is as follows: HEPES 50 mM, EGTA 1 mM, MgCl2 10 mM, DTT2 mM, Tween-20 0.010 and water. Then the plates are shaken and then incubated at 26.5° C. for 60 min. At the end of the incubation, 10 μL of mixture of 2× detection mix [(EU3+Cryptate (1×)+Streptavidin-XL665 (final concentration: 62.5 nM) (HTRF KinEASE-TK kit Cat #62TK0PEC)] is added to the assay plate, shaken and incubated at 26.5° C. for 60 min. Plates are then read on a Perkin Elmer Envision for HTRF signal (665 nm reading/615 nm reading). After normalization to untreated controls, the percent inhibition of the HTRF signal at each compound concentration is calculated. The plot of percent inhibition versus the log of compound concentration is fit with a 4-parameter dose response equation to calculate IC50 values.

In assay [3] the target is T3, JAK1-JH1 (Homo sapiens, UniProt P23458).
T3 construct: recombinant purified His or GST-tagged catalytic domain for each enzyme; made in house
T3 sequence (P23458 875-1153 limits assumed): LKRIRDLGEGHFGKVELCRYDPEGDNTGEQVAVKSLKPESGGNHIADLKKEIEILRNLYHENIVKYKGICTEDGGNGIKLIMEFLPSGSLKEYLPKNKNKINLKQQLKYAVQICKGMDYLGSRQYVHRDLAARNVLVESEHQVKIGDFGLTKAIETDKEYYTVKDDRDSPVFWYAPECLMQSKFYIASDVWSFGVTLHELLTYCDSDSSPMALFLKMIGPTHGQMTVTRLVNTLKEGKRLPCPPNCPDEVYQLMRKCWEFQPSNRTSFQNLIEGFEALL
The experiment in a line: HTRF-based selectivity assay, JAK1 catalytic domain. The class given is biochemical. Conditions: kinase domain (JH1), ATP 21.43 μM. How it is done: as §2

Assay [4] deals with T4, JAK2-JH1 (Homo sapiens, UniProt O60674).
T4 construct: recombinant purified His or GST-tagged catalytic domain for each enzyme; made in house
T4 sequence (O60674 849-1124 limits assumed): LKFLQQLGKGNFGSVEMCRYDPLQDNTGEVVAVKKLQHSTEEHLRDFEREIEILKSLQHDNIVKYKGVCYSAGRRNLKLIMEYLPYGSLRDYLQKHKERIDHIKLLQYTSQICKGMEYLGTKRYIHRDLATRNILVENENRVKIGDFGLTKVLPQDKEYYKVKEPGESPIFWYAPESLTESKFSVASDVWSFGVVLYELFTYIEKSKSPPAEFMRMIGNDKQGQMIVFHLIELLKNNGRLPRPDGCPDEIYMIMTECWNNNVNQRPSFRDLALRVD
The experiment in a line: HTRF-based selectivity assay, JAK2 catalytic domain. The format is biochemical. The following applies: kinase domain (JH1), ATP 14.7 μM. How it is done:
as §2

Assay [5] has as its target T5, JAK3-JH1 (Homo sapiens, UniProt P52333).
T5 construct: recombinant purified His or GST-tagged catalytic domain for each enzyme; purchased Carna biosciences 08-046
The experiment in a line: HTRF-based selectivity assay, JAK3 catalytic domain. The class given is biochemical. The following applies: kinase domain (JH1), ATP 2.12 μM. How it is done: as §2

Assay [6] concerns IL-2. Briefly: Selectivity assay (SEAP) IL-2 reporter cells. The format is cell-based. Conditions: Homo sapiens, IL-2 reporter cells on HEK293 background, read-out: Selectivity assays (SEAP) nM or E-Max % IL-2.
The test system of assay [7] is IFN-γ. The experiment in a line: Selectivity assay (SEAP) IFN-γ reporter cells. The format is cell-based. The following applies: Homo sapiens, IFN-γ reporter cells on HEK293 background, read-out: Selectivity assays (SEAP) nM or E-Max % IFN-γ.
For assay [8], the system named is IFN-γ-pSTAT1. The experiment in a line: STAT phosphorylation assay IFN-γ-pSTAT1. The format is cell-based. The following applies: Homo sapiens, 0.25 h; IFN-γ (50 ng/ml) 15 min, phospho-STAT1 Western blot normalized to GAPDH; read-out: Selectivity assays (STATs) % Inhibition IFN-γ-pSTAT1. How it is done:
(§3) 0.3 to 0.5×10^6 Reporter cells (IL-23, IL-2, IFNα or IFNγ on HEK293 background purchased from InvivoGen) were seeded per well in 0.8 mL of DMVEM cell medium supplemented with 100 U/ml-100 μg/ml Pen-Strep and 10% FBS in 12 or 6-well plates and incubated overnight at 370 C, 5% CO2, 95% humidity. 0.1 mL test compounds serially diluted in DMSO and further diluted (10×) in intermediate plate containing cell treatment medium were prepared and added to the wells. The plates were incubated at 37° C. for 1 hr. Control wells contained 1′% DMSO prepared in cell medium. Post incubation, respective reporter cells were stimulated with 0.1 mL of either IL-23 (50 ng/ml; Miltenyl Biotech, cat #130-095-758) for 45 min or IL-2 (20 ng/ml) (Miltenyl Biotech, cat #130-097-742) for 15 min or IFNα/β (10 ng/ml) (Invivogen, cat #rcyc-hifna2b) for 15 min or IFN-γ (50 ng/ml) (Invivogen, cat #rcyec-hifng) for 15 min. Post stimulation cells were washed with DPBS once and lysed with 100 μL of RIPA buffer and placed on ice for 5 min. The lysates were then transferred to 1.5 mL Eppendorf tubes and centrifuged for 5 minutes at 10000 rpm at 4° C. and the supernatants either stored at −80° C. or used for protein estimation.
Samples were diluted 5× in cell lysis buffer and total protein concentration was determined in 96-well using Bradford Protein Assay following manufacturer's instructions. Western blot assay was performed using Protein Simple Wes Master Kit (SM-W004/DM-001) and device, following manufacturer's instructions. 1 to 2 mg/mL of total proteins were loaded per sample in 4 μL volume; phospho-STAT1, 3 or 5 antibodies (1:25) and GAPDH antibodies were diluted as indicated.
(§4) Western blot results were analysed using Compass 2.7.1 software and phospho-STAT quantity (AUC values) was normalized to GAPDH quantity (AUC values) for each sample.

Assay [9] concerns the target T1, TYK2. Briefly: HEK-Blue IL-23 reporter assay (SEAP) for TYK2 pseudokinase inhibition. The format is cell-based. Also noted: HEK-Blue™ IL-23 and IFNα/β cells with a stably-integrated cytokine receptor and STAT3 or STAT1; host or cells: HEK-Blue IL-23 / HEK-Blue IFNα/β cells (HEK293 background). Conditions: HEK-Blue IL-23 cells, 10 ng/mL human recombinant IL-23, SEAP reporter; read-out: IL23 IC50. The method, boiled down: as §1

In assay [10] the test system is IL-2-pSTAT5. The experiment in a line: STAT phosphorylation assay IL-2-pSTAT5. The class given is cell-based. Conditions: Homo sapiens, 0.25 h; IL-2 (20 ng/ml) 15 min, phospho-STAT5 Western blot normalized to GAPDH; read-out: Selectivity assays (STATs) % Inhibition IL-2-pSTAT5. How it is done:
as §3, with “The lysates were then transferred to 1.5 mL Eppendorf tubes and centrifuged for 5 minutes at 10000 rpm at 4° C. and the supernatants either stored at −80° C. or used for protein estimation.” left out
Samples were diluted 5× in cell lysis buffer and total protein concentration was determined in 96-well using Bradford Protein Assay following manufacturer's instructions. […]
as §4

SMILES strings stand for the structures.

T5 sequence (P52333 822-1111 limits assumed): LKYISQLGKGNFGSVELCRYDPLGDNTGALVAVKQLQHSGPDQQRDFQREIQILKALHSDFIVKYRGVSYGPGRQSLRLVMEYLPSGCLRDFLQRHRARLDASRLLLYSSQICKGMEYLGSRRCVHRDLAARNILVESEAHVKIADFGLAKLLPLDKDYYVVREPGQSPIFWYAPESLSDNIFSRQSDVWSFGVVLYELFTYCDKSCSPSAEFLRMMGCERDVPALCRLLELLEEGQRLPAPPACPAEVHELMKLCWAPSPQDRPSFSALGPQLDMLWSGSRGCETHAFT
T1 sequence (P29597 whole entry): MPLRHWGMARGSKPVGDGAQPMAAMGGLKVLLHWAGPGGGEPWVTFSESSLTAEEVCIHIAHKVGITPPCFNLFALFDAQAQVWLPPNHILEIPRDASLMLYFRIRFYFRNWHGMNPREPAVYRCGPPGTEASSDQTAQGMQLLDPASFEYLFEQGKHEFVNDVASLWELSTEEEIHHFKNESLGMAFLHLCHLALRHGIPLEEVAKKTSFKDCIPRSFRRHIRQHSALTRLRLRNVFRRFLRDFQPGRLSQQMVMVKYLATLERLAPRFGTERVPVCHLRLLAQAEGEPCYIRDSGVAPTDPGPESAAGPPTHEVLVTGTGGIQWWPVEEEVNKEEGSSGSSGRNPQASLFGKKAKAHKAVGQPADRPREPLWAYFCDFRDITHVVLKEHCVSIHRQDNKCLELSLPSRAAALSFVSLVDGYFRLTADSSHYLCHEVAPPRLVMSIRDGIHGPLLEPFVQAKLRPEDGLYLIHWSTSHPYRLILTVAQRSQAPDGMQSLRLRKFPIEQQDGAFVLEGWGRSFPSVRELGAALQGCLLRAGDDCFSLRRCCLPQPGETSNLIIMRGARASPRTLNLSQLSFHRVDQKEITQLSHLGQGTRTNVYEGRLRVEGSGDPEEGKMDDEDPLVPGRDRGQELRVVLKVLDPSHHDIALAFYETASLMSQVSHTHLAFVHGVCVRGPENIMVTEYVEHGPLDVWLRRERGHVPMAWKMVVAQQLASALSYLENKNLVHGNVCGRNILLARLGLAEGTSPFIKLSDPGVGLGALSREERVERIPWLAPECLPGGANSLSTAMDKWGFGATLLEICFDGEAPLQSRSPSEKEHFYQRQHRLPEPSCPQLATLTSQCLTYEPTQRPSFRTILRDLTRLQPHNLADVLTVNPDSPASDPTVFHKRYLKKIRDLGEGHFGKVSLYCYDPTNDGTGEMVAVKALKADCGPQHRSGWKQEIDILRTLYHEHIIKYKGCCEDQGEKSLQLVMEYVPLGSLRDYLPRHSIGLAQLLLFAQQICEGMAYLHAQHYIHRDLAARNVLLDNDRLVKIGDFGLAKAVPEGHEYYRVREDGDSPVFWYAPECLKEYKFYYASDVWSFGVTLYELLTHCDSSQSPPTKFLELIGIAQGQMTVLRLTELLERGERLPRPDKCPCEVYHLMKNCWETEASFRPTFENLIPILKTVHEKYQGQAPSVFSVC

Take `O=C(Nc1cc2c(cn1)c(=O)[nH]n2-c1ccccc1)C1CC1` [Compound I-1, N-(3-oxo-1-phenyl-2,3-dihydro-1H-pyrazolo[4,3-c]pyridin-6-yl)cyclopropanecarboxamide]: the IC50 is below 10 µM in assay [1]; 30 to 90 µM in assay [2]; 30 to 90 µM in assay [3]; 30 to 90 µM in assay [4]; 10 to 30 µM in assay [5]; above 90000 nM in [6]. For the same compound, the IC50 in assay [7] was 30000 to 90000 nM; in assay [8], above 90 µM; in assay [9], below 10 µM.
Take `Cc1cc(Nc2cc3c(cn2)c(=O)[nH]n3-c2ccccc2)nc(C)n1` [Compound I-3, 6-((2,6-dimethylpyrimidin-4-yl)amino)-1-phenyl-1,2-dihydro-3H-pyrazolo[4,3-c]pyridin-3-one]: the IC50 in [1] was below 10 µM; in assay [2], 10 to 30 µM; in assay [3], above 90 µM; in assay [4] it was below 10 µM; in assay [5] it was below 10 µM; in assay [6], 30000 to 90000 nM. Besides, the IC50 is 10000 to 30000 nM in assay [7], above 90 µM in assay [10], above 90 µM in assay [8] and below 10 µM in assay [9].
With `COc1cccc(-n2[nH]c(=O)c3cnc(Nc4cc(C)nc(C)n4)cc32)c1` [Compound I-17, 6-((2,6-dimethylpyrimidin-4-yl)amino)-1-(3-methoxyphenyl)-1,2-dihydro-3H-pyrazolo[4,3-c]pyridin-3-one], the IC50 in assay [1] was below 10 µM; in assay [2] it was 30 to 90 µM; in [3], above 90 µM; in [4], 10 to 30 µM; in assay [5] it was 10 to 30 µM; in assay [6], above 90000 nM. Also, the IC50 in assay [7] is 30000 to 90000 nM; in [10], 30 to 90 µM; in assay [8] it was above 90 µM; in assay [9], below 10 µM.

(Values after US12668594B2, “TYK2 inhibitors and uses thereof” (Sudo Biosciences Limited, priority 2020, dated 2026).)
